Converted amounts (≈) assume the structure as drawn. The source made the active and inactive calls. No cut-off for these calls is given here.
What was measured:
Candida albicans = assay: Antimicrobial activity against Candida albicans ATCC 60193 after 24 hrs by agar dilution method; type: functional, organism-based
Saccharomyces cerevisiae = assay: Antimicrobial activity against Saccharomyces cerevisiae RSKK 251 after 24 hrs by agar dilution method; type: functional, organism-based
Escherichia coli = assay: Antimicrobial activity against Escherichia coli ATCC 25922 after 24 hrs by agar dilution method; type: functional, organism-based
Listeria monocytogenes = assay: Antimicrobial activity against Listeria monocytogenes ATCC 43251 after 24 hrs by agar dilution method; type: functional, organism-based
[1] = tested on: Yersinia pseudotuberculosis; conditions: ATCC 911
Pseudomonas aeruginosa = assay: Antimicrobial activity against Pseudomonas aeruginosa ATCC 10145 after 24 hrs by agar dilution method; type: functional, organism-based
Bacillus cereus = assay: Antimicrobial activity against Bacillus cereus 709 Roma after 24 hrs by agar dilution method; type: functional
[2] = tested on: Mycolicibacterium smegmatis; assay: Antimicrobial activity against Mycobacterium smegmatis ATCC 607 after 24 hrs by agar dilution method; type: functional
Staphylococcus aureus = assay: Antimicrobial activity against Staphylococcus aureus ATCC 25923 after 24 hrs by agar dilution method; type: functional
Enterococcus faecalis = assay: Antimicrobial activity against Enterococcus faecalis ATCC 29212 after 24 hrs by agar dilution method; type: functional, organism-based
[3] = Antioxidant activity assessed as DPPH scavenging activity at 200 ug/ml after 60 mins by spectrophotometry; type: physicochemical; conditions: 1 h
[4] = Antioxidant activity assessed as trolox equivalent of ferric ion reducing activity using fe3+-TPTZ at 200 ug/ml by FRAP assay; type: physicochemical
[5] = Antioxidant activity assessed as DPPH scavenging activity at 10 ug/ml after 60 mins by spectrophotometry; type: physicochemical; conditions: 1 h

Row | Compound | MIC (Candida albicans) | MIC (Saccharomyces cerevisiae) | MIC (Escherichia coli) | MIC (Listeria monocytogenes) | MIC [1] | MIC (Pseudomonas aeruginosa) | MIC (Bacillus cereus) | MIC [2] | MIC (Staphylococcus aureus) | MIC (Enterococcus faecalis) | Activity [3] | Activity [4] | MIC ([2]; ATCC 607, 24 h) | Activity [5] | MIC (Staphylococcus aureus; ATCC 25923, 24 h)
1 | OC(Cn1cncn1)(Cn1cncn1)c1ccc(F)cc1F | Active | Active |  |  |  |  |  |  |  |  |  |  |  |  | 
2 | CC1(C)S[C@@H]2[C@H](NC(=O)[C@H](N)c3ccccc3)C(=O)N2[C@H]1C(=O)O |  |  | Active | Active | Active | Active | Active | Active | Active | Active |  |  |  |  | 
3 | Nn1c(Cc2cccs2)nn(CC(=O)N/N=C/c2ccco2)c1=O | inactive | inactive | inactive | inactive | inactive | inactive | inactive | inactive | inactive | inactive | 9.7% | 10 µM |  |  | 
4 | O=C(Cn1nc(Cc2cccs2)n(/N=C/c2ccccc2)c1=O)N/N=C/c1ccccc1 | inactive | inactive | inactive | inactive | inactive | inactive | inactive | inactive | inactive | inactive |  | 35 µM |  |  | 
5 | Cc1ccc(-n2c(S)nnc2Cn2nc(Cc3cccs3)n(N)c2=O)cc1 | inactive | inactive | inactive | inactive | inactive | inactive | inactive | inactive | inactive | inactive | 23.9% | 54 µM |  |  | 
6 | O=C(Cn1nc(Cc2cccs2)n(/N=C/c2ccco2)c1=O)N/N=C/c1ccco1 | inactive | inactive | inactive | inactive | inactive | inactive | inactive | inactive | inactive | inactive | 30.9% | 79 µM |  |  | 
7 | Nn1c(Cc2cccs2)nn(Cc2nnc(S)n2-c2ccc(F)cc2)c1=O | inactive | inactive | inactive | inactive | inactive | inactive | inactive | inactive | inactive | inactive | 31.7% | 39 µM |  |  | 
8 | CCOC(=O)Cn1nc(Cc2cccs2)n(N)c1=O | inactive | inactive | inactive | inactive | inactive | inactive | inactive |  | inactive | inactive | 10% | 14 µM | 994 µg/mL (≈ 3.52 mM) |  | 
9 | Nn1c(Cc2cccs2)nn(CC(=O)NNC(=S)Nc2ccc(Br)cc2)c1=O | inactive | inactive | inactive | inactive | inactive | inactive | 950 µg/mL (≈ 1.97 mM) |  |  | inactive |  | 635 µM | 950 µg/mL (≈ 1.97 mM) | 84.4% | 950 µg/mL (≈ 1.97 mM)
10 | Nn1c(Cc2cccs2)nn(CC(=O)N/N=C/c2cccnc2)c1=O | inactive | inactive | inactive | inactive | inactive | inactive | inactive | inactive | inactive | inactive |  | 26 µM |  |  | 
11 | Nn1c(Cc2cccs2)nn(CC(=O)N/N=C/c2ccccc2)c1=O | inactive | inactive | inactive | inactive | inactive | inactive | inactive | inactive | inactive | inactive |  | 40 µM |  |  | 
12 | Nn1c(Cc2cccs2)nn(Cc2nnc(S)n2-c2ccc(Br)cc2)c1=O | inactive | inactive | inactive | inactive | inactive | inactive | 1750 µg/mL (≈ 3.77 mM) |  |  | inactive | 22.1% | 70 µM | 1750 µg/mL (≈ 3.77 mM) |  | 1750 µg/mL (≈ 3.77 mM)
13 | Cc1ccc(NC(=S)NNC(=O)Cn2nc(Cc3cccs3)n(N)c2=O)cc1 | inactive | inactive | inactive | inactive | inactive | inactive | inactive |  |  | inactive |  | 1257 µM | 1610 µg/mL (≈ 3.86 mM) | 88.2% | 3220 µg/mL (≈ 7.72 mM)
14 | Nn1c(Cc2cccs2)nn(CC(=O)N/N=C/c2cccs2)c1=O | inactive | inactive | inactive | inactive | inactive | inactive | inactive | inactive | inactive | inactive |  | 36 µM |  |  | 
15 | O=C(Cn1nc(Cc2cccs2)n(/N=C/c2cccs2)c1=O)N/N=C/c1cccs1 | inactive | inactive | inactive | inactive | inactive | inactive | inactive | inactive | inactive | inactive |  | 27 µM |  |  | 
16 | O=C(Cn1nc(Cc2cccs2)n(/N=C/c2cccnc2)c1=O)N/N=C/c1cccnc1 | inactive | inactive | inactive | inactive | inactive | inactive | inactive | inactive | inactive | inactive |  | 16 µM |  |  | 
17 | NNC(=O)Cn1nc(Cc2cccs2)n(N)c1=O | inactive | inactive | inactive | inactive | inactive | inactive | inactive |  | inactive | inactive | 1.9% | 1368 µM | 994 µg/mL (≈ 3.7 mM) |  | 
18 | Nn1c(Cc2cccs2)nn(Cc2nnc(S)n2-c2ccccc2)c1=O | inactive | inactive | inactive | inactive | inactive | inactive | inactive | inactive | inactive | inactive | 62.7% | 11 µM |  |  | 
19 | Nn1c(Cc2cccs2)nn(CC(=O)NNC(=S)Nc2ccc(F)cc2)c1=O | inactive | inactive | inactive | inactive | inactive | inactive | inactive | inactive |  | inactive |  | 503 µM |  | 69% | 2410 µg/mL (≈ 5.72 mM)
20 | COc1ccc(/C=N/NC(=O)Cn2nc(Cc3cccs3)n(/N=C/c3ccc(OC)cc3)c2=O)cc1 | inactive | inactive | inactive | inactive | inactive | inactive | inactive | inactive | inactive | inactive |  | 54 µM |  |  | 
21 | Nn1c(Cc2cccs2)nn(CC(=O)NNC(=S)Nc2ccccc2)c1=O | inactive | inactive | inactive | inactive | inactive | inactive | 5050 µg/mL (≈ 12.5 mM) |  |  | inactive |  | 584 µM | 1260 µg/mL (≈ 3.13 mM) | 83.4% | 2520 µg/mL (≈ 6.26 mM)
22 | COc1ccc(/C=N/NC(=O)Cn2nc(Cc3cccs3)n(N)c2=O)cc1 | inactive | inactive | inactive | inactive | inactive | inactive | inactive | inactive | inactive | inactive |  | 87 µM |  |  | 

From ChEMBL document CHEMBL3351382, “New thiophene-1,2,4-triazole-5(3)-ones: highly bioactive thiosemicarbazides, structures of Schiff bases and triazole-thiols” (Eur J Med Chem, 2014)
